Assay results from ChEMBL document CHEMBL6153141, “Design, Synthesis, and Mechanism Study of Novel BMX Inhibitors Based on the Core of 1,3,5-Triazin-2-Amine for the Treatment of Gastric Carcinoma” (J Med Chem, 2025).
The source made the active and inactive calls. The calls are words filed in the database; no cut-off is given here.

Tests used:
A549 = assay: cells; settings: Homo sapiens, A549, 72 h
Description: Anticancer activity against human A549 cells assessed as inhibition of cell proliferation incubated for 72 hrs by MTT assay

[1] = Cytotoxicity against human GES1 cells assessed as inhibition of cell proliferation incubated for 72 hrs by MTT assay; assay type: toxicity, cell-based
[2] = Oral bioavailability in Sprague-Dawley rat at 5 mg/kg measured after 24 hrs by LC-MS/MS analysis; assay type: ADME, organism-based; settings: in vivo
[3] = target: Tyrosine-protein kinase ITK/TSK (Homo sapiens, UniProt Q08881); assay: Inhibition of ITK (unknown origin) in presence of ATP at Km concentration
HGC-27 [4] = assay: Cell cycle arrest in human HGC-27 cells assessed as accumulation of cells at G1 phase at 5 to 15 uM incubated for 48 hrs by flow cytometric analysis; assay type: functional, cell-based; settings: dose 5-15 µM
HGC-27 [5] = assay: Downregulation of BMX protein expression in human HGC-27 cells incubated for 48 hrs by Western blot analysis; assay type: functional, cell-based; settings: dose 5-15 µM
HCC827 = assay: cells; settings: Homo sapiens, HCC827, 72 h
Description: Anticancer activity against human HCC827 cells assessed as inhibition of cell proliferation incubated for 72 hrs by MTT assay

HGC-27 [6] = assay: Induction of autophagy in human HGC-27 cells assessed as decrease in p62 protein expression incubated for 48 hrs by Western blot analysis; assay type: functional, cell-based; settings: dose 5-15 µM
MGC-803 [7] = assay: Inhibition of AKT-mTOR signaling in human […] cells assessed as decrease in phosphorylated mTOR expression at 10 to 20 uM incubated for 48 hrs by Western blot analysis; assay type: cell-based; settings: dose 10-20 µM
Cytochrome P450 2C19 = Cytochrome P450 2C19 (Homo sapiens, UniProt P33261); assay: Inhibition of CYP2C19 in human liver microsomes using omeprazole as substrate preincubated for 5 mins followed by NADPH addition and measured after 10 mins by LC-MS/MS analysis; assay type: ADME, Microsome
HONE1 cell line = assay: Anticancer activity against human HONE1 cell line assessed as inhibition of cell proliferation incubated for 72 hrs by MTT assay; assay type: functional, cell-based; settings: HONE1, 72 h
[8] = target: Receptor tyrosine-protein kinase erbB-4 (Homo sapiens, UniProt Q15303); assay: Inhibition of HER4 (unknown origin) in presence of ATP at Km concentration
HGC-27 [9] = assay: Antiproliferative activity against human HGC-27 cells assessed as reduction in number of EdU-positive cells incubated for 48 hrs by confocal laser scanning microscopic analysis; assay type: functional, cell-based; settings: dose 5-15 µM
[10] = Cytotoxicity against H9c2 cells assessed as inhibition of cell proliferation incubated for 72 hrs by MTT assay; assay type: toxicity, cell-based; settings: rat
HGC-27 [11] = assay: Antitumor activity against human HGC-27 cells xenografted in female BALB/c nude mouse model assessed as reduction in tumor weight at 30 mg/kg/day, ip administered for 21 days; assay type: functional, organism-based; settings: time 21.0 day
4T1 = assay: Anticancer activity against mouse 4T1 cells assessed as inhibition of cell proliferation incubated for 72 hrs by MTT assay; assay type: functional, cell-based; settings: 4T1, 72 h
Cytochrome P450 3A4 = Cytochrome P450 3A4 (Homo sapiens, UniProt P08684); assay: Inhibition of CYP3A4 in human liver microsomes using testosterone as substrate preincubated for 5 mins followed by NADPH addition and measured after 10 mins by LC-MS/MS analysis; assay type: ADME, Microsome
HGC-27 [12] = assay: Inhibition of AKT-mTOR signaling in human HGC-27 cells assessed as decrease in phosphorylated mTOR expression at 5 to 15 uM incubated for 48 hrs by Western blot analysis; assay type: cell-based; settings: dose 5-15 µM
MGC-803 [13] = assay: Anticancer activity against human MGC-803 cells assessed as inhibition of cell proliferation incubated for 72 hrs by MTT assay; assay type: functional, cell-based; settings: MGC-803, 72 h
MGC-803 [14] = assay: cells; settings: Homo sapiens, MGC-803, 48 h
Description: Antiproliferative activity against human MGC-803 cells assessed as inhibition of cell viability incubated for 48 hrs by MTT assay

MGC-803 [15] = assay: Inhibition of AKT-mTOR signaling in human […] cells assessed as decrease in phosphorylated AKT expression at 10 to 20 uM incubated for 48 hrs by Western blot analysis; assay type: cell-based; settings: dose 10-20 µM
MGC-803 [16] = assay: Effect on mTOR expression in human MGC-803 cells at 10 to 20 uM incubated for 48 hrs by Western blot analysis; assay type: functional, cell-based; settings: dose 10-20 µM
[17] = Toxicity in female BALB/c nude mouse model xenografted with human HGC-27 cells assessed as effect on spleen at 30 mg/kg, ip administered for 21 days by H and E staining based analysis; assay type: organism-based; settings: in vivo, 504 h, time 21 day
HGC-27 [18] = assay: Inhibition of AKT-mTOR signaling in human HGC-27 cells assessed as decrease in phosphorylated AKT expression at 5 to 15 uM incubated for 48 hrs by Western blot analysis; assay type: cell-based; settings: dose 5-15 µM
Cytochrome P450 2D6 = Cytochrome P450 2D6 (Homo sapiens, UniProt P10635); assay: Inhibition of CYP2D6 in human liver microsomes using dextromethorphan as substrate preincubated for 5 mins followed by NADPH addition and measured after 10 mins by LC-MS/MS analysis; assay type: ADME, Microsome
HGC-27 [19] = assay: Induction of apoptosis in LC3B knockout human HGC-27 cells assessed as increase in cleaved PARP level at 15 uM by Western blot analysis; assay type: functional, cell-based
[20] = Toxicity in female BALB/c nude mouse model xenografted with human HGC-27 cells assessed as body weight loss at 30 mg/kg, ip administered for 21 days; assay type: organism-based; settings: in vivo, 504 h, time 21 day
[21] = Toxicity in female BALB/c nude mouse model xenografted with human HGC-27 cells assessed as effect on heart at 30 mg/kg, ip administered for 21 days by H and E staining based analysis; assay type: organism-based; settings: in vivo, 504 h, time 21 day
Cytochrome P450 2C9 = Cytochrome P450 2C9 (Homo sapiens, UniProt P11712); assay: Inhibition of CYP2C9 in human liver microsomes using tolbutamide as substrate preincubated for 5 mins followed by NADPH addition and measured after 10 mins by LC-MS/MS analysis; assay type: ADME, Microsome
[22] = Toxicity in female BALB/c nude mouse model xenografted with human HGC-27 cells assessed as effect on kidney at 30 mg/kg, ip administered for 21 days by H and E staining based analysis; assay type: organism-based; settings: in vivo, 504 h, time 21 day
DU-145 = assay: cells; settings: Homo sapiens, DU-145, 72 h
Description: Anticancer activity against human DU-145 cells assessed as inhibition of cell proliferation incubated for 72 hrs by MTT assay

[23] = Metabolic stability in human liver microsomes assessed as intrinsic clearance at 100 uM measured upto 60 mins in presence of NADPH by LC-MS/MS analysis; assay type: ADME, Microsome; settings: read-out: CLH
HGC-27 [24] = assay: Effect on mTOR expression in human HGC-27 cells at 5 to 15 uM incubated for 48 hrs by Western blot analysis; assay type: functional, cell-based; settings: dose 5-15 µM
[25] = target: Epidermal growth factor receptor (Homo sapiens, UniProt P00533); assay: Inhibition of EGFR (unknown origin) in presence of ATP at Km concentration
HeLa = assay: Anticancer activity against human HeLa cells assessed as inhibition of cell proliferation incubated for 72 hrs by MTT assay; assay type: functional, cell-based
Cytochrome P450 1A2 = Cytochrome P450 1A2 (Homo sapiens, UniProt P05177); assay: Inhibition of CYP1A2 in human liver microsomes using phenacetin as substrate preincubated for 5 mins followed by NADPH addition and measured after 10 mins by LC-MS/MS analysis; assay type: ADME, Microsome
[26] = Toxicity in female BALB/c nude mouse model xenografted with human HGC-27 cells assessed as effect on liver at 30 mg/kg, ip administered for 21 days by H and E staining based analysis; assay type: organism-based; settings: in vivo, 504 h, time 21 day
[27] = Cytotoxicity against HEK293 cells assessed as inhibition of cell proliferation incubated for 72 hrs by MTT assay; assay type: toxicity, cell-based; settings: human

Chain of Cytochrome P450 2C19 (P33261 whole entry): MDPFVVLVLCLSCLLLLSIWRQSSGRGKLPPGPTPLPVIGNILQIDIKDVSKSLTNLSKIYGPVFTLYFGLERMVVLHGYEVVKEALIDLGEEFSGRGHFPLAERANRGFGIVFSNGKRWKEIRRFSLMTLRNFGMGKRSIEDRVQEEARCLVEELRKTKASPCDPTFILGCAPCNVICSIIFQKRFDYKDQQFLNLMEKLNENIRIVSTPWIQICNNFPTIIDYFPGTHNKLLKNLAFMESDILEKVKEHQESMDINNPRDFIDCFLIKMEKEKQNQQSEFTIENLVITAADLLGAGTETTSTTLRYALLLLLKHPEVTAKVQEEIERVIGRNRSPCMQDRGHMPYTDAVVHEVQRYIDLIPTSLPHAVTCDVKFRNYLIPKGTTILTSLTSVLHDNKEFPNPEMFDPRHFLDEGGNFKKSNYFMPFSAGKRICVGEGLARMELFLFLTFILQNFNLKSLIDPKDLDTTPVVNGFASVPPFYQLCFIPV
Chain of Cytochrome P450 2D6 (P10635 whole entry): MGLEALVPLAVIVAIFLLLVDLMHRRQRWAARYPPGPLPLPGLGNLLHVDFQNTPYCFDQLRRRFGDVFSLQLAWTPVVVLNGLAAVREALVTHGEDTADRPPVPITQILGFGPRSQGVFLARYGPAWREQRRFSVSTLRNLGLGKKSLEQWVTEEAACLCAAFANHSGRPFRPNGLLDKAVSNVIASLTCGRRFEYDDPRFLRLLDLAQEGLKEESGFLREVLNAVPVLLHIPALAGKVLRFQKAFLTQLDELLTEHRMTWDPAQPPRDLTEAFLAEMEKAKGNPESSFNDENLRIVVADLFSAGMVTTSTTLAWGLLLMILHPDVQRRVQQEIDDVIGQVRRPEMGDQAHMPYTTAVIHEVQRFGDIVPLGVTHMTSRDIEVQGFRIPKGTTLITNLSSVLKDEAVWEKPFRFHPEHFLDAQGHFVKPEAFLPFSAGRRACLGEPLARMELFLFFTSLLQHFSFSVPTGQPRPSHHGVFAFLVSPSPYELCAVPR
Chain of Tyrosine-protein kinase ITK/TSK (Q08881 whole entry): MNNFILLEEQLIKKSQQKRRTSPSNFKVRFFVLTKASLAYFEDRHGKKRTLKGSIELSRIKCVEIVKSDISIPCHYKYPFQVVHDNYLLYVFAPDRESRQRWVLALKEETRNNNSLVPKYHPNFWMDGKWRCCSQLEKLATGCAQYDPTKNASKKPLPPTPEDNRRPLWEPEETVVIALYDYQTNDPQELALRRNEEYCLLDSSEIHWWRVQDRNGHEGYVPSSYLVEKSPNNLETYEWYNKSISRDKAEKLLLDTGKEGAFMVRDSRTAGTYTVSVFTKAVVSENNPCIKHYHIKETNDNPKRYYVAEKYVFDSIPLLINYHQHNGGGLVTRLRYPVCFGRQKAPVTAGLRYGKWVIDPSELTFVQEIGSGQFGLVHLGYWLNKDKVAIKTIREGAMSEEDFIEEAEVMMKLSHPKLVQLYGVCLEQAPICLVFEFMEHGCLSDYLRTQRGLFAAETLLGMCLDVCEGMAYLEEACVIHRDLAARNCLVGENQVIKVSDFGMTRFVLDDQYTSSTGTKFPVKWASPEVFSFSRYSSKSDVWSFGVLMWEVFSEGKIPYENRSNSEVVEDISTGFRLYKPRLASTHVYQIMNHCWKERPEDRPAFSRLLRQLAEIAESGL
Chain of Cytochrome P450 1A2 (P05177 whole entry): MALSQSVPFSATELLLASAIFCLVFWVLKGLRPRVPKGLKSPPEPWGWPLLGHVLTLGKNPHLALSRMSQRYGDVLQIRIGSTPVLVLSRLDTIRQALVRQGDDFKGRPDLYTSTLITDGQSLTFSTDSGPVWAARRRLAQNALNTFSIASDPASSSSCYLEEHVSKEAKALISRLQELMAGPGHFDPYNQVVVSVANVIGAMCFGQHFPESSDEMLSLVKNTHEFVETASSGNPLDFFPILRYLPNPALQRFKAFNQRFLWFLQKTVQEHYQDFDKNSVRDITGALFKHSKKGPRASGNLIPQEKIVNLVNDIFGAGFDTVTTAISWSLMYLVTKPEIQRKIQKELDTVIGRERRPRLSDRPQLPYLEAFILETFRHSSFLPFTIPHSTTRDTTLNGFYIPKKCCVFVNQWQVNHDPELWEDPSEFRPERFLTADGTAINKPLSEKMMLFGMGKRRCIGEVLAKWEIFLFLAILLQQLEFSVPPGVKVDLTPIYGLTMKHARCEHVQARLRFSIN
Chain of Receptor tyrosine-protein kinase erbB-4 (Q15303 whole entry): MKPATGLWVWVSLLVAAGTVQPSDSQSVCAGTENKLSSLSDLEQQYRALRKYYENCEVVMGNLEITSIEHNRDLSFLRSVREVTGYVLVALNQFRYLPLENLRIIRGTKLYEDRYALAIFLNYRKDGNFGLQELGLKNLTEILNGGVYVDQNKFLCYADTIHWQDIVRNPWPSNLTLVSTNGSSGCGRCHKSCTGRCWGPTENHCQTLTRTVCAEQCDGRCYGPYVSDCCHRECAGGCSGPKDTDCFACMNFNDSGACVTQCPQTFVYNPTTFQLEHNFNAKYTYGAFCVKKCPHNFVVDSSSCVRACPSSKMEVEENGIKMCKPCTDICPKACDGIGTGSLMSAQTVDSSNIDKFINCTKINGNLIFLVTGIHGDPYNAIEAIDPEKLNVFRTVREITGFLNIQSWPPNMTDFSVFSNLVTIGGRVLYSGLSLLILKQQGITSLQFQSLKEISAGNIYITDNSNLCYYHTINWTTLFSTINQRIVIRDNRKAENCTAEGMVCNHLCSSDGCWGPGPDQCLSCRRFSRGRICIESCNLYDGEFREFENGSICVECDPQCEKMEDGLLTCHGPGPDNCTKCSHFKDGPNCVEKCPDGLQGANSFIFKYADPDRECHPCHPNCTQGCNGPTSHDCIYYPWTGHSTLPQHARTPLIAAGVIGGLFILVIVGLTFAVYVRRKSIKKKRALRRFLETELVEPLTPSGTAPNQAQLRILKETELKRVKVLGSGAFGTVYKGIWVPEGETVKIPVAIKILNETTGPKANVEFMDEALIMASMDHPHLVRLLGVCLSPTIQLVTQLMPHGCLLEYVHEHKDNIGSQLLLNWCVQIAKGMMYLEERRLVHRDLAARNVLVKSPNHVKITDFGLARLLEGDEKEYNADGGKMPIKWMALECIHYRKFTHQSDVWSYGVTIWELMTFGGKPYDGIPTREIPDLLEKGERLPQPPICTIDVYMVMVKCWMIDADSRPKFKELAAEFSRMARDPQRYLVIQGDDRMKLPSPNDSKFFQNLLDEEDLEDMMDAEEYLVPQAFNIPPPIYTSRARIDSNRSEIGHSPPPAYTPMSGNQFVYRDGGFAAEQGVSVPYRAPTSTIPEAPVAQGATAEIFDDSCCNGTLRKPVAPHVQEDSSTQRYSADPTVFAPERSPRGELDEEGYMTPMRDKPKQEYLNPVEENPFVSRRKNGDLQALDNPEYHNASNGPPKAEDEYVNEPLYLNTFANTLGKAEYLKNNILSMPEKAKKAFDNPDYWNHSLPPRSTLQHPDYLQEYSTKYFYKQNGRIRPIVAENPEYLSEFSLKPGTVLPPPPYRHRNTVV
Chain of Epidermal growth factor receptor (P00533 whole entry): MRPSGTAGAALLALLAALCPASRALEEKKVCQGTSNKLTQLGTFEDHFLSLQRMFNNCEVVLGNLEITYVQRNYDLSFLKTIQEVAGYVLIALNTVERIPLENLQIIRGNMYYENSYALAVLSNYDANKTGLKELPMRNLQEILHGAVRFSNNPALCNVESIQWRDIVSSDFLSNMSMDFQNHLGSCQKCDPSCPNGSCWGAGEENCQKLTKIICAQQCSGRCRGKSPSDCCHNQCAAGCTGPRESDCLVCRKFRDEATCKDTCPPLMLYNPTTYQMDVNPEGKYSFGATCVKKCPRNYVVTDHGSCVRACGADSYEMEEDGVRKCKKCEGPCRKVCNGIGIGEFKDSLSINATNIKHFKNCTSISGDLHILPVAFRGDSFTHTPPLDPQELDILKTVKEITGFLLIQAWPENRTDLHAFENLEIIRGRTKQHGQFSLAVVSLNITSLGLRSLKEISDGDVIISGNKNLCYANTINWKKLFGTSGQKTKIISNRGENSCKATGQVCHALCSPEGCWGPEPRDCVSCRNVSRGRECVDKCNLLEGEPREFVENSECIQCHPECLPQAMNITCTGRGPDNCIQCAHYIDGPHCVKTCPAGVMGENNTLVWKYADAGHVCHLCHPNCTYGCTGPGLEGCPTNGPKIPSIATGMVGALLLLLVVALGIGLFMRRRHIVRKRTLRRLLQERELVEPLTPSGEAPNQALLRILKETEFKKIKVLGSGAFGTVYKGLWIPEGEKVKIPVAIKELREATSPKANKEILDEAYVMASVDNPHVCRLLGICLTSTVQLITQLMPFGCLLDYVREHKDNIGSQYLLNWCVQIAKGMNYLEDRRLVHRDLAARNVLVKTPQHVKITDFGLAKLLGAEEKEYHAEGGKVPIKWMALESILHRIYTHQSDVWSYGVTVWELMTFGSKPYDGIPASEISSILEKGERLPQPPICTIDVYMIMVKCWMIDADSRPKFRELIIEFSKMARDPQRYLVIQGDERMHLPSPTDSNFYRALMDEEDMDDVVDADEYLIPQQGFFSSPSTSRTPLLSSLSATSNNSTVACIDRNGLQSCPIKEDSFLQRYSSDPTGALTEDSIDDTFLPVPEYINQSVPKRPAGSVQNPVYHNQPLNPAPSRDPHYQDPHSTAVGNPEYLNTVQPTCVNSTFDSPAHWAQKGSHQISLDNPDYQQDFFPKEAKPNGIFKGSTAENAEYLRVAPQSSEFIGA

C=CS(=O)(=O)N1CCC[C@@H](Nc2nc(N)nc(Nc3cccc(Oc4ccccc4)c3)n2)C1
IC50 (A549): 29.4 µM | IC50 at 72 h [1]: 21.2 µM | bioavailability [2]: 6.6% | IC50 [3]: > 1 µM | Activity (HGC-27 [4]): Active | Activity (HGC-27 [5]): Dose-dependent-effect | IC50 (HCC827): 5.7 µM | Activity (HGC-27 [6]): Dose-dependent-effect | inhibition (MGC-803 [7]): Active | IC50 (Cytochrome P450 2C19): > 100 µM | IC50 (HONE1 cell line): 15.7 µM | IC50 [8]: > 1 µM | Activity (HGC-27 [9]): Dose-dependent-effect | IC50 at 72 h [10]: > 32 µM | Activity (HGC-27 [11]): Active | IC50 (4T1): 16.6 µM | IC50 (Cytochrome P450 3A4): > 100 µM | inhibition (HGC-27 [12]): Active | IC50 (MGC-803 [13]): 14.4 µM | IC50 (MGC-803 [14]): 15.2 µM | inhibition (MGC-803 [15]): Active | Activity (MGC-803 [16]): inactive | Activity [17]: Non-toxic | inhibition (HGC-27 [18]): Active | IC50 (Cytochrome P450 2D6): 82 µM | Activity (HGC-27 [19]): Active | Activity [20]: Non-toxic | Activity [21]: Non-toxic | IC50 (Cytochrome P450 2C9): 16.8 µM | Activity [22]: Non-toxic | IC50 (DU-145): 10.4 µM | microsomal CLint at 100 µM [23]: 214 µL/min/mg | Activity (HGC-27 [24]): inactive | IC50 [25]: 0.468 µM | IC50 (HeLa): 6.5 µM | IC50 (Cytochrome P450 1A2): > 100 µM | Activity [26]: Non-toxic | IC50 at 72 h [27]: > 32 µM
